This is an account of results in article PMC3268023, “Simple Preparation of Pacific Cod Trypsin for Enzymatic Peptide Synthesis” (Journal of Amino Acids, 2011).

In experiment [1] the test system is Pacific cod trypsin (PcT). Briefly: inverse substrate hydrolysis, absorbance at […] nm, Lineweaver-Burk. The class given is biochemical, Gadus macrocephalus. The conditions noted are these: 50 mM Tris-HCl pH 8.0, 10 mM CaCl2, 30°C, substrate in DMSO (10 of 200 μL).
The test system of experiment [2] is Pacific cod trypsin (PcT). The experiment is described as follows: p-nitroaniline release at […] nm, Lineweaver-Burk. Format: biochemical, Gadus macrocephalus. As to conditions: 50 mM Tris-HCl pH 8.0, 10 mM CaCl2, 30°C, substrate in DMSO (10 of 200 μL).

Where a name gives a salt, the structure may show the parent alone.

With `C[C@H](NC(=O)OC(C)(C)C)C(=O)Oc1ccc(C(=N)N)cc1` [5a, N-(tert-butoxycarbonyl)-L-alanine p-amidinophenyl esters], the Km (as a rule, the concentration of substrate that gives half-maximal velocity) in experiment [1] came to 1.5 µM.

On to `N=C(N)NCCC[C@H](NC(=O)c1ccccc1)C(=O)Nc1ccc([N+](=O)[O-])cc1` [BAPA, N-benzoyl-L-arginine p-nitroanilide hydrochloride], for which the Km in experiment [2] was 37 µM.
